Reference: patent US20070117851A1, “Liquid pharmaceutical compositions of nimodipine” (TRANSFORM PHARMACEUTICALS, INC., priority 2005, published 2007)
Converted amounts (≈) assume the structure as drawn.

Experiments:
[1] = Chemical stability of nimodipine in the Table 2 composition via HPLC; format: physicochemical
Description: The chemical stability of nimodipine was measured at 40 and 60 degrees C. via HPLC in a composition described in Table 2.
FIGS. 1 and 2 show the chemical stability of nimodipine in the composition described in Table 2 at 40 and 60 degrees C., respectively. These Figures show data acquired with compositions having a pH of 5, 6, and 7, over a period of four weeks. […] Subsequent data has also been acquired over a period of 8 weeks.

[2] = Nimodipine equilibrium solubility in alcohol/solvent/water mixtures; format: physicochemical; conditions: 10% ethanol
Description: The effect of several alcohol and solvent concentrations on nimodipine solubility in water was studied. Nimodipine equilibrium solubility was tested at room temperature with the following solutions: • 1. Various % (v/v) of ethanol in 10 mM pH 6.8 citrate buffer • 2. Various % (w/w) of Cremophor® EL in 10 mM pH 6.8 citrate buffer • 3. Various % (v/v) of ethanol with 30% (w/w) Cremophor® EL in 10 mM pH 6.8 citrate buffer • 4. Various % (w/w) of propylene glycol (PG) in the solution of 30% Cremophor™ EL and 10% ethanol in citrate buffer at pH 6.8 • 5. Various % (w/w) of propylene glycol (PG) in the solution of 20% Cremophor® EL and 10% ethanol in citrate buffer at pH 6.8 • 6. Various % (w/w) of PEG 400 in the solution of 20% Cremophor® EL and 10% ethanol in citrate buffer at pH 6.8 • 7. Various % (w/w) of PEG400 in the solution of 30% Cremophor® EL and 10% ethanol in citrate buffer at pH 6.8 • 8. Various % (w/w) of mixture of PG/PEG400 at 1:1 (w/w) in the solution of 30% Cremophor® EL and 10% ethanol in citrate buffer at pH6.8 The above solutions were prepared by weight except solution 1 which the percent ethanol was mixed with citrate buffer by volume. […] Concentration of each sample was determined by HPLC based on a standard curve and the dilution factor of each samples solution. […]

What does the source list for `COCCOC(=O)C1=C(C)NC(C)=C(C(=O)OC(C)C)C1c1cccc([N+](=O)[O-])c1` (centres unmarked) [nimodipine, 1,4-dihydro-2,6-dimethyl-4-(3-nitrophenyl)-3,5-pyridinedicarboxylic acid 2-methoxyethyl 1-methylethyl ester]?
nimodipine stability ([1]; Table 2 composition (3.0 mg/mL), 40 degrees C, pH 5, 6 and 7, four weeks, HPLC): greater than 99%; nimodipine stability ([1]; Table 2 composition (3.0 mg/mL), 60 degrees C, pH 5, 6 and 7, four weeks, HPLC): greater than 99%; nimodipine stability ([1]; Table 2 composition, 60 degrees C, pH=7, 8 weeks): greater than 99%; nimodipine solubility compared with the composition comprising 30% ethanol and 30% Cremophor EL ([2]; 30% PEG 400, FIG. 7): comparable; solubility at 24 h ([2]; aqueous with cosolvent or surfactant or cyclodextrin, thermodynamic from solid, 30% Cremophor EL, 30% PEG 400 in citrate buffer pH 6.8, room temperature, 24 hours): ~14 mg/mL (≈ 33.5 mM)
